Test results from patent US20260274895A1, “DE NOVO DESIGNED MEMBRANE-TRAVERSING AND ORALLY BIOAVAILABLE MACROCYCLES” (UNIVERSITY OF WASHINGTON, priority 2022, published 2026).
Several values for one entry are separate records, joined by “and”; a condition that tells them apart may be missing. Identical values can stand only once. Where a SMILES comes first, the peptide text is derived from it. [ ]: non-standard residue; d: D form. NMeL = CN[C@@H](CC(C)C)C(=O)O; dNMeL = CN[C@H](CC(C)C)C(=O)O; NMeV = CN[C@H](C(=O)O)C(C)C; NMeA = CN[C@@H](C)C(=O)O; dNMeA = CN[C@H](C)C(=O)O

Legend:
[1] = PAMPA, PAMPA_Papp_Avg (apparent permeability)
[2] = Pharmacokinetics of D10.1 after PO, SQ and IV dosing in mice
[3] = PAMPA
[4] = PO 12.2 mg/kg, individual mice, 12.2 mg/kg
[5] = female, Balb/C, mouse, plasma, po, 12.2 mg/kg
[6] = female, Balb/C, mouse, plasma, sc, 12.2 mg/kg

## CC(C)[C@@H]1C(=O)N[C@@H](Cc2ccccc2)C(=O)N2CCC[C@H]2C(=O)N(C)[C@H](Cc2ccccc2)C(=O)N[C@H](C)C(=O)N2CCC[C@H]2C(=O)N1C (single isomer, unassigned) [Design D6.8.p1, *faP*vFP]
[1]
  Papp: 3.47 ×10⁻⁶ cm/s

## CC(C)C[C@H]1C(=O)N2CCC[C@@H]2C(=O)N[C@@H](Cc2ccccc2)C(=O)N2CCC[C@H]2C(=O)N[C@H](C(C)C)C(=O)N[C@H](Cc2ccccc2)C(=O)N1C (single isomer, unassigned) [Design D6.9.p1, vf*LpFP]
[1]
  Papp: 5.29 ×10⁻⁶ cm/s

## CC(C)C[C@H]1NC(=O)[C@H]2CCCN2C(=O)[C@@H]2CCCN2C(=O)[C@@H](Cc2ccccc2)NC(=O)[C@@H](C(C)C)NC(=O)[C@H](CC(C)C)N(C)C(=O)[C@@H](Cc2ccccc2)NC1=O (single isomer, unassigned) [Design D7.7.p2, Pplf*Lvf]
[1]
  Papp: 9.06 ×10⁻⁶ cm/s

## CC[C@H](C)[C@@H]1NC(=O)[C@H](Cc2ccccc2)NC(=O)[C@H]2CCCN2C(=O)[C@H]([C@@H](C)CC)NC(=O)[C@H](C(C)C)NC(=O)[C@@H](C)NC(=O)[C@H]2CCCN2C1=O (single isomer, unassigned) [Design D7.8.p2, VIpFIpa]
[1]
  Papp: 4.92 ×10⁻⁶ cm/s

## CC(C)C[C@@H]1NC(=O)[C@@H](C(C)C)NC(=O)[C@H](CC(C)C)N(C)C(=O)[C@H]2CCCN2C(=O)[C@@H](C(C)C)NC(=O)[C@H]2CCCN2C(=O)[C@@H](C(C)C)NC(=O)[C@@H](Cc2ccccc2)N(C)C(=O)[C@H](CC(C)C)N(C)C1=O (single isomer, unassigned) [Design D9.8.p2, *LvL*L*fvpvp]
[1]
  Papp: 0.255 ×10⁻⁶ cm/s

## CC[C@H](C)[C@@H]1NC(=O)[C@@H](CC(C)C)NC(=O)[C@H](CC(C)C)N(C)C(=O)[C@H](Cc2ccccc2)NC(=O)CN(C)C(=O)[C@@H]2CCCN2C(=O)[C@H](C(C)C)NC(=O)[C@H](Cc2ccccc2)N(C)C(=O)[C@H]2CCCN2C(=O)[C@H](CC(C)C)NC1=O (single isomer, unassigned) [Design D10.1.p1, lILp*FVP*GF*L]
[1]
  Papp: 3.92 ×10⁻⁶ cm/s

## CC(C)C[C@@H]1NC(=O)[C@H](Cc2ccccc2)NC(=O)[C@@H](CC(C)C)NC(=O)[C@H]2CCCN2C(=O)[C@H](C(C)C)NC(=O)[C@@H](CC(C)C)NC(=O)[C@H]2CCCN2C(=O)[C@@H]2CCCN2C1=O [Design D8.5, FLPplVpl] (cyclo(FLP[dP][dL]V[dP][dL]))
[1]
  Papp: 6.31 ×10⁻⁶ cm/s

## CC[C@H](C)[C@@H]1NC(=O)[C@@H](C)N(C)C(=O)[C@H]2CCCN2C(=O)[C@H]2CCCN2C(=O)[C@H](Cc2ccccc2)NC(=O)[C@@H](CC(C)C)NC(=O)[C@@H](CC(C)C)N(C)C(=O)[C@@H]2CCCN2C1=O [Design D8.17, P*llFpp*aI] (cyclo(F[dP][dP][dNMeA]IP[dNMeL][dL]))
[1]
  Papp: 0.95 ×10⁻⁶ cm/s

## CC(C)C[C@H]1NC(=O)[C@H]2CCCN2C(=O)[C@H](CC(C)C)N(C)C(=O)[C@@H](C)N(C)C(=O)[C@@H](Cc2ccccc2)NC(=O)[C@@H](C(C)C)NC(=O)[C@H]2CCCN2C(=O)[C@@H](CC(C)C)NC1=O [Design D8.19, f*a*Lpllpv] (cyclo([NMeL][dP][dL][dL][dP][dV][dF][dNMeA]))
[1]
  Papp: 0.626 ×10⁻⁶ cm/s

## CC[C@H](C)[C@@H]1NC(=O)[C@@H](CC(C)C)NC(=O)[C@H](CC(C)C)N(C)C(=O)[C@H](Cc2ccccc2)NC(=O)CN(C)C(=O)[C@@H]2CCCN2C(=O)[C@H](C(C)C)NC(=O)[C@H](Cc2ccccc2)N(C)C(=O)[C@H]2CCCN2C(=O)[C@H](CC(C)C)NC1=O [Design D10.1, lILp*FVP*GF*L]
[2]; IV ([…] per Table 12), mean ±
  Half-life T1/2: 1.123 ± 0.113 h
  Volume of distribution @ steady state VSS: 0.25 ± 0.08 L/kg
  Volume of distribution during elimination phase VZ: 0.32 ± 0.07 L/kg
[2]; PO 12.2 mg/kg, 15 min, AVG
  Plasma level: 2.58 µM
[2]; PO 12.2 mg/kg, 15 min, individual mice, 12.2 mg/kg
  Plasma level: 2.22 µM and 3.26 µM and 2.26 µM
[2]; PO 12.2 mg/kg, 30 min, AVG
  Plasma level: 2.92 µM
[2]; PO 12.2 mg/kg, 30 min, individual mice, 12.2 mg/kg
  Plasma level: 2.49 µM and 3.64 µM and 2.64 µM
[2]; PO 12.2 mg/kg, 60 min, AVG
  Plasma level: 1.78 µM
[2]; PO 12.2 mg/kg, 60 min, individual mice, 12.2 mg/kg
  Plasma level: 1.57 µM and 2.14 µM and 1.64 µM
[2]; PO 12.2 mg/kg, 120 min, AVG
  Plasma level: 0.72 µM
[2]; PO 12.2 mg/kg, 120 min, individual mice, 12.2 mg/kg
  Plasma level: 0.54 µM and 0.8 µM and 0.81 µM
[2]; PO 12.2 mg/kg, 240 min, AVG
  Plasma level: 0.16 µM
[2]; PO 12.2 mg/kg, 240 min, individual mice, 12.2 mg/kg
  Plasma level: 0.13 µM and 0.18 µM and 0.17 µM
[2]; PO 12.2 mg/kg, 360 min, AVG
  Plasma level: 0.07 µM
[2]; PO 12.2 mg/kg, 360 min, individual mice, 12.2 mg/kg
  Plasma level: 0 μM and 0.1 μM (2×)
[2]; PO 12.2 mg/kg, 1440 min, AVG
  Plasma level: 0 µM
[2]; PO 12.2 mg/kg, 1440 min, individual mice
  Plasma level: 0 µM
[2]; PO 12.2 mg/kg, AVG
  AUC0-t: 270.4 µmol·min/L
  AUC0-∞: 279.94 µmol·min/L
  CI/F: 0.000785 L/min
  Cmax: 2920 nM
[2]; PO 12.2 mg/kg, individual mice
  Tmax: 0.5 h
[2]; [4]
  AUC0-t: 216.96 µmol·min/L and 327.78 µmol·min/L and 266.45 µmol·min/L
  AUC0-∞: 226.62 µmol·min/L and 337.03 µmol·min/L and 276.18 µmol·min/L
  CI/F: 0.000944 L/min and 0.000635 L/min and 0.000775 L/min
  Cmax: 2490 nM and 3640 nM and 2640 nM
  T1/2: 0.8313 h and 1.051 h and 1.132 h
[2]; PO (12.2 mg/kg per Table 10), mean
  Apparent clearance CI/F: 0.000785 L/min
[2]; PO (12.2 mg/kg per Table 10), mean ±
  Half-life T1/2: 1.005 ± 0.156 h
[2]; PO, IV dosing as reference, mean ±
  Oral bioavailability F: 7.48 ± 1.79%
[2]; SQ 12.2 mg/kg, 15 min, AVG
  Plasma level: 2.53 µM
[2]; SQ 12.2 mg/kg, 15 min, individual mice
  Plasma level: 1.39 µM and 2.44 µM and 3.75 µM
[2]; SQ 12.2 mg/kg, 30 min, AVG
  Plasma level: 3.55 µM
[2]; SQ 12.2 mg/kg, 30 min, individual mice
  Plasma level: 1.81 µM and 3.69 µM and 5.15 µM
[2]; SQ 12.2 mg/kg, 60 min, AVG
  Plasma level: 3.93 µM
[2]; SQ 12.2 mg/kg, 60 min, individual mice
  Plasma level: 1.87 µM and 4.88 µM and 5.03 µM
[2]; SQ 12.2 mg/kg, 360 min, AVG
  Plasma level: 2.29 µM
[2]; SQ 12.2 mg/kg, 360 min, individual mice
  Plasma level: 2.4 µM and 2.19 µM
[2]; SQ 12.2 mg/kg, 1440 min, AVG
  Plasma level: 0.01 µM
[2]; SQ 12.2 mg/kg, 1440 min, individual mice
  Plasma level: 0 μM (2×) and 0.03 μM
[2]; SQ 12.2 mg/kg, AVG
  AUC0-t: 1879.54 µmol·min/L
  AUC0-∞: 2867.17 µmol·min/L
  CI/F: 7.96e-05 L/min
  Cmax: 4140 nM
  T1/2: 3.7563 h
  Tmax: 2.5 h
[2]; SQ 12.2 mg/kg, individual mice
  AUC0-t: 730.93 µmol·min/L and 3578.6 µmol·min/L and 1329.09 µmol·min/L
  AUC0-∞: 3585.94 µmol·min/L and 2148.41 µmol·min/L
  CI/F: 5.97e-05 L/min and 9.96e-05 L/min
  Cmax: 2400 nM and 4880 nM and 5150 nM
  T1/2: 3.1823 h and 4.3302 h
[2]; [5]
  level at time molar at 0.25 h: 2580 ± 590 nM
  level at time molar at 0.5 h: 2920 ± 630 nM
  level at time molar at 1 h: 1780 ± 310 nM
  level at time molar at 2 h: 720 ± 150 nM
  level at time molar at 4 h: 160 ± 30 nM
  level at time molar at 6 h: 70 ± 60 nM
[2]; [6]
  CL/F: 0.0796 mL/min
  level at time molar at 0.25 h: 2530 ± 1180 nM
  level at time molar at 0.5 h: 3550 ± 1670 nM
  level at time molar at 1 h: 3930 ± 1780 nM
  level at time molar at 6 h: 2290 ± 150 nM
  level at time molar at 24 h: 10 ± 20 nM
[2]; mouse, in vivo
  bioavailability: 7.5 to 11%
[2]; mouse, in vivo, sc, 12.2 mg/kg
  Cmax: 4140 ± 1510 nM
  Tmax: 2.5 h
  half-life: 3.76 ± 0.812 h

## CC[C@@H](C)[C@H]1NC(=O)[C@@H](CC(C)C)NC(=O)[C@H](C(C)C)NC(=O)[C@@H](CC(C)C)N(C)C(=O)[C@@H]2CCCN2C(=O)[C@H](C)NC(=O)[C@H](CC(C)C)N(C)C(=O)[C@H]2CCCN2C(=O)[C@H](C)N(C)C(=O)[C@@H](CC(C)C)N(C)C(=O)[C@@H]2CCCN2C1=O [Design D11.5, AP*lVliP*l*Ap*L] (cyclo(AP[dNMeL]V[dL][dI]P[dNMeL][NMeA][dP][NMeL]))
[3]
  PAMPA_Papp_Avg (apparent permeability): 2.81 ×10⁻⁶ cm/s

## CC[C@H](C)[C@@H]1NC(=O)[C@H](C(C)C)N(C)C(=O)[C@H]2CCCN2C(=O)[C@H]([C@@H](C)CC)NC(=O)[C@@H](CC(C)C)N(C)C(=O)[C@@H](C)NC(=O)[C@@H]2CCCN2C(=O)[C@H]2CCCN2C(=O)[C@H](CC(C)C)NC(=O)[C@@H](Cc2ccccc2)NC(=O)[C@H](CC(C)C)NC(=O)[C@H]2CCCN2C1=O [Design D12.3, p*VIpLfLpPa*lI] (cyclo([dA][dNMeL]I[dP][NMeV]I[dP]L[dF]L[dP]P))
[3]
  PAMPA_Papp_Avg (apparent permeability): 0.789 ×10⁻⁶ cm/s

## CC(C)C[C@@H]1NC(=O)[C@@H](CC(C)C)N(C)C(=O)[C@@H](CC(C)C)N(C)C(=O)[C@@H](CC(C)C)N(C)C(=O)[C@H](CC(C)C)NC(=O)[C@@H]2CCCN2C(=O)[C@H]2CCCN2C(=O)[C@H](Cc2ccccc2)NC1=O [SEQ ID NO 47, FpPL*l*l*lL] (cyclo(L[dNMeL][dNMeL][dNMeL]LF[dP]P))
[3]
  PAMPA_Papp_Avg (apparent permeability): 1.27 ×10⁻⁶ cm/s
